These are literature values, as cited in patent US7759335B2, “Cannabinoid receptor antagonists/inverse agonists useful for treating metabolic disorders, including obesity and diabetes” (Jenrm Discovery, Inc., priority 2008, dated 2010).

The conditions of this data set: patients with type 2 diabetes not treated with other anti-diabetic medications; after six months of treatment; baseline value 7.9; placebo reduction 0.3%.

In the case of `Cc1c(C(=O)NN2CCCCC2)nn(-c2ccc(Cl)cc2Cl)c1-c1ccc(Cl)cc1` [rimonabant], the HbA1c levels lowered was 0.8%.
